SMILES strings stand for the structures. “And” between values parts separate entries of the source, which are not always exact repeats. Equal values may be shown once.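 Results reflect a 48-hour exposure of cells in 96-well plates to compound at five concentrations. GI50 is the concentration that inhibits growth by half. At the TGI there is no net growth.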

The values below come from PubChem BioAssay (NCI).

Among the test systems are DMS 273 small cell lung; HCC-2998 colon; KM20L2 colon; LOX IMVI melanoma; LXFL 529 NSCLC; M19-MEL melanoma; NCI-H460 lung; RPMI-8226 leukemia; XF 498 CNS; DLD-1 colon; HOP-18 NSCLC; SNB-78 CNS; TK-10 renal; UACC-62 melanoma; PC-3 prostate.
Holding throughout (assay): NCI tumour cell line growth inhibition, 48 h

For the molecule `O=C1NCCCC12CCCNC2=O`, the TGI with DMS 273 small cell lung, in the assay with HCC-2998 colon, in the assay on KM20L2 colon, in the assay on LOX IMVI melanoma, in the assay on LXFL 529 NSCLC and in the assay on M19-MEL melanoma was greater than 100 µM throughout. In addition, the TGI with NCI-H460 lung, in the assay on RPMI-8226 leukemia and in the assay with XF 498 CNS was greater than 100 µM in each case.

Take `O=C(Cc1ccccc1)NN1C(=O)C(Cl)C1c1ccc([N+](=O)[O-])cc1` (stereo not given): the TGI in the assay with DLD-1 colon, in the assay with DMS 273 small cell lung, with HCC-2998 colon, with HOP-18 NSCLC, in the assay with KM20L2 colon and in the assay with LOX IMVI melanoma was greater than 100 µM in each case. Further, the TGI in the assay on LXFL 529 NSCLC, in the assay on M19-MEL melanoma, with NCI-H460 lung, in the assay with RPMI-8226 leukemia, in the assay on SNB-78 CNS and with TK-10 renal was greater than 100 µM in each case. In addition, the TGI in the assay with UACC-62 melanoma and in the assay on XF 498 CNS was greater than 100 µM each time.

`COC(=O)C1=C(C(=O)OC)C2C(C)=CC(C)=CN2C(C#N)=C(SC)S1` (stereo not given): the TGI in the assay on DLD-1 colon is 49.2 µM; in the assay with DMS 273 small cell lung it was greater than 100 µM; in the assay with HCC-2998 colon it was 94.5 µM; in the assay on KM20L2 colon it was 86.7 µM; with LOX IMVI melanoma it was 35.4 µM; with LXFL 529 NSCLC, 37.6 µM. For the same molecule, the TGI was 33.8 µM with M19-MEL melanoma; greater than 100 µM in the assay on NCI-H460 lung; 64.1 µM in the assay with RPMI-8226 leukemia; greater than 100 µM in the assay on SNB-78 CNS; 69.8 µM in the assay on TK-10 renal.

As for `Nc1ccc(C(=O)NN2C(=O)C(Cl)C2c2cc(Br)ccc2O)cc1` (stereo not given), the TGI in the assay on DLD-1 colon, with DMS 273 small cell lung, in the assay on HCC-2998 colon, in the assay on KM20L2 colon, in the assay on LOX IMVI melanoma and with LXFL 529 NSCLC was greater than 100 µM each time. The TGI with M19-MEL melanoma, in the assay on NCI-H460 lung, with RPMI-8226 leukemia, with SNB-78 CNS, with TK-10 renal and with UACC-62 melanoma was greater than 100 µM throughout. Moreover, the TGI with XF 498 CNS was greater than 100 µM.

Consider `COP(=O)(OC)C(=NCc1ccccc1)NNc1ccc([N+](=O)[O-])cc1`, for which the TGI with DLD-1 colon, with DMS 273 small cell lung, with HCC-2998 colon, with KM20L2 colon, with LXFL 529 NSCLC and in the assay with M19-MEL melanoma was greater than 100 µM throughout. Also, the TGI with NCI-H460 lung was 79.3 µM; in the assay on RPMI-8226 leukemia, 57.1 µM; in the assay with TK-10 renal it was greater than 100 µM; in the assay on UACC-62 melanoma, greater than 100 µM.

In the case of `COc1c(OC)c(N)c2cc(C)c(=O)c(C)cc2c1N`, the TGI in the assay on DLD-1 colon, in the assay on DMS 273 small cell lung, in the assay on HCC-2998 colon, in the assay on HOP-18 NSCLC, in the assay with KM20L2 colon and in the assay on LOX IMVI melanoma was greater than 100 µM each time. In addition, the TGI in the assay with LXFL 529 NSCLC, with M19-MEL melanoma, with NCI-H460 lung, in the assay on RPMI-8226 leukemia, in the assay with SNB-78 CNS and with TK-10 renal was greater than 100 µM each time. Besides, the TGI with UACC-62 melanoma and in the assay on XF 498 CNS was greater than 100 µM in each case.

On to `NC(=O)NO`, for which the TGI with DLD-1 colon is greater than 2500 µM; in the assay on DMS 273 small cell lung, 1360 µM; in the assay with HCC-2998 colon it was 1810 µM; with HOP-18 NSCLC it was 1940 µM; in the assay on KM20L2 colon, 1700 µM; in the assay on LOX IMVI melanoma it was greater than 2430 µM. Further, the TGI in the assay with LXFL 529 NSCLC was greater than 2320 µM; in the assay on M19-MEL melanoma it was greater than 2450 µM; in the assay with NCI-H460 lung it was 2040 µM; with PC-3 prostate, greater than 2500 µM; with RPMI-8226 leukemia it was 2260 µM; in the assay on SNB-78 CNS, greater than 2500 µM. Also, the TGI with TK-10 renal was greater than 2500 µM; in the assay with UACC-62 melanoma, 1560 µM; in the assay with XF 498 CNS it was 1850 µM. Also, the GI50 in the assay on HOP-18 NSCLC is 1130 µM.

Consider `C(=Nc1ccc(-c2cc(-c3ccccc3)nc3ccc4ccccc4c23)cc1)c1ccccc1`, for which the TGI in the assay on HCC-2998 colon is 26.6 µM; with LOX IMVI melanoma, greater than 100 µM; in the assay on NCI-H460 lung it was greater than 100 µM; with PC-3 prostate it was greater than 100 µM; in the assay on RPMI-8226 leukemia, greater than 100 µM; in the assay with TK-10 renal, 74.6 µM. Besides, in the assay with UACC-62 melanoma, the TGI worked out at 62.1 µM.

`CCOC(=O)c1sc2nc(SC)nc3c2c1NCN3c1ccc2c(c1)OCCCO2`: the TGI in the assay on HCC-2998 colon, in the assay with LOX IMVI melanoma, in the assay with NCI-H460 lung, with PC-3 prostate, in the assay with RPMI-8226 leukemia and in the assay with TK-10 renal was greater than 100 µM each time. In the assay on UACC-62 melanoma, this molecule registered a TGI greater than 100 µM.

On to `C=CC(C)(C)C(=C)C(=O)N(C)c1ccccc1I`, for which the TGI in the assay with HCC-2998 colon, in the assay with LOX IMVI melanoma, in the assay on NCI-H460 lung, in the assay on PC-3 prostate, in the assay with RPMI-8226 leukemia and in the assay on TK-10 renal was greater than 100 µM throughout. The molecule also had a TGI with UACC-62 melanoma greater than 100 µM.

On to `COc1cc(C2c3cc4c(cc3[C@@H](NCCN3CCCCC3)C3COC(=O)[C@H]23)OCO4)cc(OC)c1O` (stereo not given in full), for which the TGI is 6.78 µM and 10.2 µM in the assay with DLD-1 colon; 1.27 µM and 1.44 µM in the assay with DMS 273 small cell lung; 1.97 µM and 2.37 µM in the assay with HCC-2998 colon; 3.73 µM and 29.4 µM in the assay on HOP-18 NSCLC; 8.14 µM and 11.5 µM in the assay on KM20L2 colon; 1.72 µM and 1.61 µM with LOX IMVI melanoma. Further, the TGI was 14.5 µM and 15.2 µM with LXFL 529 NSCLC; 5.4 µM and 4.14 µM in the assay with M19-MEL melanoma; 1.03 µM and 0.914 µM with NCI-H460 lung; 5.69 µM and 3.93 µM in the assay on RPMI-8226 leukemia; 8.09 µM and 23.3 µM in the assay on SNB-78 CNS; 5.34 µM and 5.88 µM in the assay with TK-10 renal. Moreover, the TGI is 1.73 µM and 1.79 µM in the assay on UACC-62 melanoma; 4.01 µM and 4.2 µM in the assay on XF 498 CNS. For the same molecule, the GI50 was 0.427 µM and 1.09 µM in the assay on HCC-2998 colon; 0.0285 µM with NCI-H460 lung; 0.585 µM and 1.27 µM with XF 498 CNS.
